Data reported in ChEMBL document CHEMBL5634124, “Discovery and optimization of indirubin derivatives as novel ferroptosis inducers for the treatment of colon cancer” (Eur J Med Chem, 2023).
pIC50: −log10 of the molar value.

Test system: HCT-116
Experiment: Cytotoxicity against human HCT-116 cells assessed as inhibition of cell viability incubated for 48 hrs by CCK8 assay
Type: functional, cell-based
Conditions: HCT-116, 48 h

| Compound | pIC50 |
| --- | --- |
| O=C1Nc2ccccc2/C1=C1/Nc2ccc(C(=O)Nc3ccc(N4CCN(C(=O)CCl)CC4)cc3)cc2C1=O | 5.12 |
| O=C(CCl)CCCCCC(=O)c1ccc2c(c1)C(=O)/C(=C1/C(=O)Nc3ccccc31)N2 | 5.66 |
| C#CC(=O)N1CCN(c2ccc(NC(=O)c3ccc4c(c3)C(=O)/C(=C3/C(=O)Nc5ccccc53)N4)cc2)CC1 | < 4.70 |
| C=CC(=O)N1CCN(c2ccc(NC(=O)c3ccc4c(c3)C(=O)/C(=C3/C(=O)Nc5ccccc53)N4)cc2)CC1 | < 4.70 |
| C#CC(=O)CCCC(=O)c1ccc2c(c1)C(=O)/C(=C1/C(=O)Nc3ccccc31)N2 | 5.13 |
| C#CC(=O)N1CCC(CNC(=O)c2ccc3c(c2)C(=O)/C(=C2/C(=O)Nc4ccccc42)N3)CC1 | 6.00 |
| CC(=O)N1CCC(NC(=O)c2ccc3c(c2)C(=O)/C(=C2/C(=O)Nc4ccccc42)N3)CC1 | 5.39 |
| C=CC(=O)CCCC(=O)c1ccc2c(c1)C(=O)/C(=C1/C(=O)Nc3ccccc31)N2 | < 4.70 |
| C#CC(=O)N1CCN(NC(=O)c2ccc3c(c2)C(=O)/C(=C2/C(=O)Nc4ccccc42)N3)CC1 | 5.46 |
| O=C1Nc2ccccc2/C1=C1/Nc2ccc(C(=O)Nc3ccc(C4CCN(C(=O)CCl)CC4)cc3)cc2C1=O | < 4.70 |
| O=C(CCl)CCC(=O)c1ccc2c(c1)C(=O)/C(=C1/C(=O)Nc3ccccc31)N2 | < 4.70 |
| C#CC(=O)CCCCCC(=O)c1ccc2c(c1)C(=O)/C(=C1/C(=O)Nc3ccccc31)N2 | 5.45 |
| O=C1Nc2ccccc2/C1=C1/Nc2ccc(C(=O)NN3CCN(C(=O)CCl)CC3)cc2C1=O | 5.84 |
| C=CC(=O)N1CCN(C(=O)c2ccc3c(c2)C(=O)/C(=C2/C(=O)Nc4ccccc42)N3)CC1 | 4.76 |
| C#CC(=O)CCC(=O)c1ccc2c(c1)C(=O)/C(=C1/C(=O)Nc3ccccc31)N2 | < 4.70 |
| C=CC(=O)N1CCN(NC(=O)c2ccc3c(c2)C(=O)/C(=C2/C(=O)Nc4ccccc42)N3)CC1 | 4.91 |
